We go through nine molecules from US20130004580A1, “DIVALENT CATION/TALC CONTAINING COMPOSITIONS AND METHODS FOR TREATING AND/OR PREVENTING ENZYMATIC IRRITATION” (priority 2011, published 2013).

Holding throughout (format): biochemical
The subject of experiment [1] is trypsin. The experiment is described as follows: Trypsin inhibition, EnzChek protease assay, mixtures of talc with divalent cation salts. The protocol: The objective of the following experiment was to determine whether and to what extent adding a divalent cation to talc inhibited trypsin activity in an in vitro assay. The inhibition of trypsin-induced cleavage of a fluorescent casein peptide was measured using the EnzChek™ protease assay kit, following manufacturer's instructions (EnzChek™ Protease Assay Kits Product Information, Revised; Molecular Probes, Eugene Oreg.). […] Trypsin working solution (Sigma, St. Louis, Mo., unit/mL) was prepared in digestion buffer provided in the assay kit. Stock solution of BODIPY FL casein (trypsin substrate, mg/mL) was prepared by adding 0.2 mL to the substrate vials (provided in kit), and the final substrate working solution (10 microgram/mL) was prepared by dilution in digestion buffer (pH 7.8). Following incubation of the trypsin, with or without the test materials, with the BODIPY fluorescent casein substrate, at room temperature for one hour, fluorescence was measured (excitation 485 nm/emission 530 nm) using a SpectraMax microtiter plate reader (Molecular Devices Corporation, Sunnyvale, Calif.) and Softmax Pro software (Molecular Devices Corporation). Each experiment was performed in three replicates.

Experiment [2] has as its system trypsin. The experiment is described as follows: Trypsin inhibition, EnzChek protease assay, zinc oxide/acid mixtures and formulations. Conditions: text b134 on Table 5. The protocol:
The objective of the following experiment was to determine whether and to what extent adding an acid to a formulation containing zinc oxide had on inhibition of trypsin activity in an in vitro assay. The inhibition of trypsin-induced cleavage of a fluorescent casein peptide was measured using the EnzChek™ protease assay kit, following manufacturer's instructions (EnzChek™ Protease Assay Kits Product Information, Revised; Molecular Probes, Eugene Oreg.). Briefly, mixtures of zinc oxide and acid at different concentrations were prepared in 1×PBS (pH 7.4) and their pH was recorded as listed in the Tables 5-8. Trypsin working solution (Sigma, St. Louis, Mo., unit/mL) was prepared in digestion buffer provided in the assay kit. Stock solution of BODIPY FL casein (trypsin substrate, mg/mL) was prepared by adding 0.2 mL to the substrate vials (provided in kit), and the final substrate working solution (10 microgram/mL) was prepared by dilution in digestion buffer (pH 7.8). Following incubation of the trypsin, with or without the test materials (50 μl), with the BODIPY fluorescent casein substrate, at room temperature for one hour, fluorescence was measured (excitation 485 nm/emission 530 nm) using a SpectraMax microtiter plate reader (Molecular Devices Corporation, Sunnyvale, Calif.) and Softmax Pro software (Molecular Devices Corporation). Each experiment was performed in three replicates. […]

The subject of experiment [3] is trypsin. In words: Trypsin inhibition, EnzChek protease assay (BODIPY FL casein cleavage), cation salts. Particulars: Table 1. On the procedure: The inhibition of trypsin-induced cleavage of a fluorescent casein peptide was measured using the EnzChek™ protease assay kit, following manufacturer's instructions (EnzChek™ Protease Assay Kits Product Information, Revised; Molecular Probes, Eugene Oreg.). Briefly, test materials at different concentrations were prepared in 1× phosphate buffered saline (PBS, pH 7.4). Trypsin working solution (Sigma, St. Louis, Mo., unit/mL) was prepared in digestion buffer provided in the assay kit. Stock solution of BODIPY FL casein (trypsin substrate, mg/mL) was prepared by adding 0.2 mL to the substrate vials (provided in kit), and the final substrate working solution (10 microgram/mL) was prepared by dilution in digestion buffer (pH 7.8). […] Each experiment was performed in three replicates.

On to `CC(=O)[O-].CC(=O)[O-].O.[Ca+2]` [Calcium acetate monohydrate], for which, in the experiment with trypsin [1] (Table 3, 0.1% (g/mL)), the “Salt alone, trypsin inhibition activities (%)” value came to 15.31%.

Take `[Ca+2].[Cl-].[Cl-]` [Calcium chloride]: the “Salt alone, trypsin inhibition activities (%)” value in the experiment on trypsin [1] (Table 3, 0.1% (g/mL)) worked out at 17.95%.

Regarding `O.O.O.O.[Cl][Fe][Cl]` [Iron (II) chloride tetrahydrate], the “Salt alone, trypsin inhibition activities (%)” value in the experiment on trypsin [1] (Table 3, 0.1% (g/mL)) was found to be 65.07%.

In the case of `CC(=O)[O-].CC(=O)[O-].O.O.O.O.[Mg+2]` [Magnesium acetate tetrahydrate], the “Salt alone, trypsin inhibition activities (%)” value in the experiment on trypsin [1] (Table 3, 0.1% (g/mL)) is on record as 0.83%.

As for `[Cl-].[Cl-].[Mg+2]` [Magnesium chloride], the “Salt alone, trypsin inhibition activities (%)” value in the experiment with trypsin [1] (Table 3, 0.1% (g/mL)) is 4.75%; in the experiment with trypsin [1] (Table 4, 0.1% MgCl2 (g/mL)), 9.02%; in the experiment on trypsin [1] (Table 4, 0.5% MgCl2 (g/mL)), 19.51%; in the experiment on trypsin [1] (Table 4, 1% MgCl2 (g/mL)), 22.13%. Further, the “With 1% Talc, trypsin inhibition activities (%)” value is on record as 25.43% in the experiment on trypsin [1] (Table 4, 0.1% MgCl2 with 1% talc (g/mL)); 32.84% in the experiment with trypsin [1] (Table 4, 0.5% MgCl2 with 1% talc (g/mL)); 40.42% with trypsin [1] (Table 4, 1% MgCl2 with 1% talc (g/mL)). The “trypsin inhibitory activity, in words” value in the experiment with trypsin [1] (text b102 on Table 4) is “moderate to low levels of trypsin inhibitory activity”.

On to `CC(=O)[O-].CC(=O)[O-].[Zn+2]` [Zinc acetate dihydrate], for which the “Salt alone, trypsin inhibition activities (%)” value in the experiment on trypsin [1] (Table 3, 0.1% (g/mL)) is given as 62.84%.

Take `[Cl-].[Cl-].[Zn+2]` [Zinc chloride]: the “Salt alone, trypsin inhibition activities (%)” value with trypsin [1] (Table 3, 0.1% (g/mL)) was 81.07%.

As to `[O]=[Zn]` [ZnO, zinc oxide], the “trypsin inhibitory activity, in words” value with trypsin [2] is listed as “minimal protease activity”.

With “copper (II) chloride [(II) chloride dihydrate]”, the “% trypsin inhibitory activity” value in the experiment on trypsin [3] (concentration 0.01% (g/mL)) is recorded as 64.98%; with trypsin [3] (concentration 0.10% (g/mL)) it was 99.34%; with trypsin [3] (concentration 1% (g/mL)) it was 108.34%.
